{"source": "patent US11337971B2", "about": "“Dopamine D3 receptor selective antagonists/partial agonists and uses thereof” (THE UNITED STATES OF AMERICA, AS REPRESENTED BY THE …, priority 2018, dated 2022)", "key": {"[1]": {"target": "human D2R (Homo sapiens (Human), UniProt P14416)", "sequence (P14416 whole entry)": "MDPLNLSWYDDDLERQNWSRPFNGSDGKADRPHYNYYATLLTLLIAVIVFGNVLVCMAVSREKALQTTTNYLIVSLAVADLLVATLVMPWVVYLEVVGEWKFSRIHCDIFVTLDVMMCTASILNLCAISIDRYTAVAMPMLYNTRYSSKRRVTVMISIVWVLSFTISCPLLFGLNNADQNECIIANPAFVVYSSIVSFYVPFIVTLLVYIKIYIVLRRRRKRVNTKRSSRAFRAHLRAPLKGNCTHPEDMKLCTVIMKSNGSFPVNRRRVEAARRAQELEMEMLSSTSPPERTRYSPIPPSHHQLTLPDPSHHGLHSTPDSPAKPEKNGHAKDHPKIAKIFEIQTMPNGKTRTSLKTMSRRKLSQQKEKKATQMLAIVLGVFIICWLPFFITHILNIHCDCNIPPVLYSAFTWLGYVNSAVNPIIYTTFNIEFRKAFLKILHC", "assay": "Radioligand competition binding, [3H]N-methylspiperone, HEK293 membranes expressing human D2R", "settings": "read-out: D2R Ki ± SEM", "outline": "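HEK293 membranes (10 μg protein) incubated 1 h at room temperature in EBSS with 0.2 mM sodium metabisulfite, 0.4 nM [3H]N-methylspiperone and compound (10 μM to 10 pM, triplicate). Nonspecific binding defined with 10 μM butaclamol; GF/B filtration.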"}, "[2]": {"assay": "Phase I metabolic stability in human liver microsomes", "type": "in vitro ADME"}, "[3]": {"system": "Male Long-Evans rats", "assay": "Naloxone-precipitated conditioned place aversion (CPA) in chronic oxycodone-treated rats", "type": "in vivo, rat", "settings": "5 or 15 mg/kg, i.p., 1 h before naloxone conditioning", "procedure": "Naloxone-precipitated CPA was tested in a place-conditioning apparatus (Med Associates, St Albans, Vt.) consisting of two side compartments (21 cm×28 cm) and a central gray connecting area (21 cm×12.5 cm); a sliding door separated each compartment from the connecting area. The two side compartments differed in wall color (black vs white), floor type (stainless steel net vs stainless steel grid), and illumination. Before the experiment started, all the animals were allowed to explore the conditioning apparatus for 15 min (preconditioning).\nSix groups (n=8/group) of rats were involved in this test, 3 groups were chronically treated with oxycodone (3 mg/kg, i.p.) and the other 3 with saline (1 ml/kg), twice daily (800 and 1800 h). Four hours following the morning injection on Day 4 and 6, the oxycodone treated rats were challenged with saline and immediately confined in one side compartment of the conditioning box for 30 min, while on Day 5 and 7, they were first pretreated with either vehicle or 1 of 2 doses of compound (±)-29 (5 and 15 mg/kg, i.p.) 3 h after morning oxycodone injection, and 1 h later, challenged with naloxone (1 mg/kg, i.p.). […] The time that animals spent in each compartment was recorded. The CPA score was calculated as the time difference (seconds) that animal spent in drug-paired versus saline-paired compartment."}, "[4]": {"system": "oxycodone-induced locomotor sensitization and CPP", "assay": "Acquisition of oxycodone-induced locomotor sensitization and CPP", "settings": "in vivo"}, "[5]": {"system": "mice", "assay": "Basal locomotor activity in mice", "type": "in vivo"}}, "note": "“Also recorded” adds a separate entry of the source. Read-outs that look alike come from different tables or passages of the source."}
{"smiles": "CCc1cc(Cl)c(OC)c(N2CCN(CC(O)CCNC(=O)c3cc4ccccc4[nH]3)CC2)c1", "note": "(racemic) [Compound 29, N-(4-(4-(3-chloro-5-ethyl-2-methoxyphenyl)piperazin-1-yl)-3-hydroxybutyl)-1H-indole-2-carboxamide]", "values": [{"measurement": "Ki", "setting": "[1]; Table 1B, [3H]-N-methylspiperone competition, D2LR, 96-well plates", "result": "11.4 ± 3.27", "unit": "µM"}, {"measurement": "Ki", "setting": "[1]; Table 1C", "result": "13.2 ± 3.77", "unit": "µM"}, {"measurement": "% at 0 min.", "setting": "[2]; 0 min", "result": 100, "unit": "%"}, {"measurement": "% at 30 min.", "setting": "[2]; 30 min", "result": 89, "unit": "%"}, {"measurement": "% at 60 min.", "setting": "[2]; 60 min", "result": 73, "unit": "%"}, {"measurement": "naloxone-precipitated CPA in chronically oxycodone-treated rats", "setting": "[3]", "result": "dose-dependently attenuated the CPA induced by naloxone; also recorded: significantly blocked CPA induced by naloxone-precipitated withdrawal; also recorded: inhibition of naloxone-precipitated conditioned place aversion"}, {"measurement": "acquisition of oxycodone-induced locomotor sensitization and CPP", "setting": "[4]", "result": "significantly inhibits acquisition of both oxycodone-induced locomotor sensitization and CPP"}, {"measurement": "basal locomotor activity", "setting": "[5]", "result": "nether significantly affected"}]}
